Assay results from patent publication US7232837B2, “Stereoisomers with high affinity for adrenergic receptors” (McNeil-PPC, Inc., priority 1999, dated 2007).

Assays:
Swiss-Webster mice [1] = assay: Locomotor stimulant and depressant effects in mice; conditions: i.p.
Method: Male Swiss-Webster mice (HSD ND4, Harlan Sprague Dawley, Houston, Tex.) aged 2–3 months were used in these studies. Each dose group consisted of 8 mice. The mice were housed 2 to 4 per cage in 30.4×22.9×15.2 cm clear polycarbonate cages with food and water available ad libitum for at least one week prior to locomotor activity testing. The colony was maintained at 23±1° C., on a normal light-dark cycle beginning at 0700 hr. All testing took place during the light portion of the light-dark cycle.
Horizontal (forward movement) locomotor activity was measured using a standardized, optical activity monitoring system [Model KXYZCM (16), Omnitech Electronics, Columbus, Ohio]. Activity was monitored in forty 40.5×40.5×30.5 cm clear acrylic chambers that where housed in sets of two within larger sound-attenuating chambers. A panel of 16 infrared beams and corresponding photodetectors were spaced 2 cm apart along the sides and 2.4 cm above the floor of each activity chamber. A 7.5-W incandescent light above each chamber provided dim illumination via a rheostat set to 20% of full scale. Fans provided an 80-dB ambient noise level within the chamber.
Triprolidine HCl was obtained from Research Biochemicals International, (Natick, Mass.).
Locomotor stimulant effects. […] (+)-Amphetamine was used as a positive control. The total horizontal distance traversed (cm) was recorded at 10 minute intervals for a 2-hour session. Separate groups of 8 mice were assigned to each dose or saline group, and dose-effect testing continued for each compound until maximal stimulant or depressant effects could be estimated. A separate control group was tested along with each compound.
Using TableCurve 2D v2.03 (Jandel Scientific), the mean average total distance traversed (cm/10 min) for that period was fit to a 3-parameter logistic peak function of log10 dose (with the constant set to the mean of the saline group), and the maximum effect estimated from the resulting curve. The […] (dose producing ½ maximal stimulant activity) was estimated from a linear regression against log10 dose of the ascending portion of the dose-effect curve. The stimulant efficacy was the peak effect of the compound (cm/10 min) as estimated from the logistic peak function, minus the mean control distance traveled (cm/10 min), and was expressed for each stimulant compound as a ratio to the stimulant efficacy determined for (+)-amphetamine.
The mean average total distance traversed (cm/10 min) for that period were fit to a linear function of log10 dose of the descending portion of the dose-effect curve. […] Efficacy was the ratio of maximal depressant effect to maximum possible depression for each compound (mean average total distance of the control group minus the lowest mean total distance, expressed as a ratio to the control group total distance).
(§1) Statistical analysis. Time course data for each compound were considered in 2-way analyses of variance with dose as a between-group and time as a within-group factor. The dose-effect data were considered in 1-way analyses of variance, and planned individual comparisons were conduced between each dose and the saline control group. Interaction studies were considered in 2-way analyses of variance, with Pretreatment and Test dose as the factors.

[2] = test system: New Zealand white rabbits; assay: Intraocular pressure (IOP) after topical application to the rabbit eye; format: in vivo; conditions: mean ± S.E.
Method: These diastereomers were administered topically as either 1% or 2% solutions in buffered saline. Pupillary diameter and IOP were measured in all animals over a six hour time period during the day to minimize diurnal variations in IOP and pupil diameter.
The experiments were performed on adult male New Zealand white rabbits weighing 3.0–6.0 kg. All rabbits were caged individually and maintained on a 12 hr/12 hr light/dark schedule with free access to food and water. All animal procedures were in conformity with the ARVO Resolution on the Use and Care of Animals in Research. All treated rabbits had served as controls by having received a saline treatment on a different day.
Only one eye received drug treatment. The contralateral eye served as a control. Saline (or PBS) and drug treated rabbits were treated and observed simultaneously. A single dose was given at time zero and IOP and pupil diameter measured at −1.0, −0.5, 0.5, 1, 3 and 5 hrs post-treatment.
IOP measurements were recorded with an Alcon Applanation Pneumotonograph (Surgical Products Division, Alcon Laboratories, Inc., Ft. Worth, Tex.) in rabbits placed in Lucite restraining cages. Initial topical application of a two drop 0.5% proparacaine HCl (Ophthetic®, Allergan Pharmaceuticals, Inc.) was performed on each rabbit.
Mean and Standard Error values were used to construct time-response and dose-response curves for the treated and contralateral eye of research rabbits. The data were analyzed statistically by an analysis of variance and a Bonferoni's test for significance. P<0.05 was the accepted level of significance.

Rat = assay: Dosage which raised mean arterial pressure 10%, rat; format: in vivo
Swiss-Webster mice [3] = assay: H1 receptor antagonist (triprolidine) interaction study, locomotor activity in mice; conditions: mice pretreated with triprolidine 20 min before the test compound
Method: H1 receptor antagonist interaction studies. […] The mice were immediately placed in the activity testing chamber for a 2-h session. Doses of the test compound were selected from the ascending or descending time of the dose-effect curve determined from the compound-alone studies. Eight mice were tested for each triprolidine/test compound combination.
as §1

Dog = assay: Dosage which raised mean arterial pressure 10%, dog; format: in vivo

## CNC[C@H](O)c1cccc(O)c1 [(−)-Phenylephrine, (−)-phenylephrine]
Swiss-Webster mice [1]
  Depression Time: 30-min period following injection in which the maximal depression occurred: 0 to 30 min
  Stimulation Time: 30-min period following injection in which the maximal stimulant effect occurred: 60 to 90 min
  locomotor depressant effects, time course (result in words): dose-dependent locomotor depression within 10 to 20 minutes following injection
Swiss-Webster mice [1]; — denotes absence of significant effect
  Depression Potency: dose resulting in ½ the maximal depressant effect (ID50): 2.3 mg/kg
[2]; 1% topical, drug treated eye (T), 0.5 hr
  IOP: 24 ± 0.6 mmHg
[2]; 1% topical, drug treated eye (T), 1 hr
  IOP: 24 ± 1.0 mmHg
[2]; 1% topical, drug treated eye (T), 3 hr
  IOP: 23 ± 1.5 mmHg
[2]; 1% topical, drug treated eye (T), 5 hr
  IOP: 21 ± 1.9 mmHg
[2]; 1% topical, drug treated eye (T), −0.5 hr (pre-treatment)
  IOP: 16 ± 1.5 mmHg
[2]; 1% topical, drug treated eye (T), −1 hr (pre-treatment)
  IOP: 20 ± 1.6 mmHg
[2]; 1% topical, untreated contralateral eye (U), 0.5 hr
  IOP: 18 ± 1.6 mmHg
[2]; 1% topical, untreated contralateral eye (U), 1 hr
  IOP: 19 ± 1.3 mmHg
[2]; 1% topical, untreated contralateral eye (U), 3 hr
  IOP: 20 ± 1.9 mmHg
[2]; 1% topical, untreated contralateral eye (U), 5 hr
  IOP: 19 ± 1.7 mmHg
[2]; 1% topical, untreated contralateral eye (U), −0.5 hr (pre-treatment)
  IOP: 15 ± 2.1 mmHg
[2]; 1% topical, untreated contralateral eye (U), −1 hr (pre-treatment)
  IOP: 16 ± 1.0 mmHg
[2]; 2% topical, drug treated eye (T), 0.5 hr
  IOP: 12 ± 0.8 mmHg
[2]; 2% topical, drug treated eye (T), 1 hr
  IOP: 14 ± 2.0 mmHg
[2]; 2% topical, drug treated eye (T), 3 hr
  IOP: 16 ± 0.8 mmHg
[2]; 2% topical, drug treated eye (T), 5 hr
  IOP: 14 ± 1.3 mmHg
[2]; 2% topical, drug treated eye (T), −0.5 hr (pre-treatment)
  IOP: 15 ± 1.5 mmHg
[2]; 2% topical, drug treated eye (T), −1 hr (pre-treatment)
  IOP: 18 ± 1.6 mmHg
[2]; 2% topical, untreated contralateral eye (U), 0.5 hr
  IOP: 20 ± 2.0 mmHg
[2]; 2% topical, untreated contralateral eye (U), 1 hr
  IOP: 20 ± 2.4 mmHg
[2]; 2% topical, untreated contralateral eye (U), 3 hr
  IOP: 14 ± 1.7 mmHg
[2]; 2% topical, untreated contralateral eye (U), 5 hr
  IOP: 14 ± 2.0 mmHg
[2]; 2% topical, untreated contralateral eye (U), −0.5 hr (pre-treatment)
  IOP: 17 ± 1.9 mmHg
[2]; 2% topical, untreated contralateral eye (U), −1 hr (pre-treatment)
  IOP: 17 ± 1.9 mmHg
Rat
  Dosage of Enantiomer which raised mean arterial pressure 10%, Rat: 3 to 5 µg
Swiss-Webster mice [3]
  effect of triprolidine pretreatment on stimulant or depressant effects: failed to show significant modification of stimulant or depressant effects
Dog
  Dosage of Enantiomer which raised mean arterial pressure 10%, Dog: 10 µg/kg
